Assays:
[1] = target: T1, WEE1 (Homo sapiens, UniProt P30291+Q96SW2); assay: Western-blot assay, substrate protein degradation in hPBMCs: WEE1; format: cell-based; settings: for WEE1 substrate protein remaining %: compounds at 50 nM and 500 nM, 24 hours
T1 construct: effects of the compounds of the present disclosure on the expression of target proteins in cells; endogenous in cells; host or cells: human PBMCs (hPBMCs)

[2] = target: T2, CK1α (Homo sapiens, UniProt P48729+Q96SW2); assay: Western-blot assay, substrate protein degradation in hPBMCs: CK1α; format: cell-based; settings: for CK1α substrate protein remaining %: compounds at 50 nM and 500 nM, 24 hours
T2 construct: effects of the compounds of the present disclosure on the expression of target proteins in cells; endogenous in cells; host or cells: human PBMCs (hPBMCs)

[3] = target: T3, IKZF1 (Homo sapiens, UniProt Q13422+Q96SW2); assay: Western-blot assay, substrate protein degradation in hPBMCs: IKZF1; format: cell-based; settings: for IKZF1 substrate protein remaining %: compounds at 50 nM and 500 nM, 24 hours
T3 construct: effects of the compounds of the present disclosure on the expression of target proteins in cells; endogenous in cells; host or cells: human PBMCs (hPBMCs)

[4] = target: T4, IKZF3 (Homo sapiens, UniProt Q96SW2+Q9UKT9); assay: Western-blot assay, substrate protein degradation in hPBMCs: IKZF3; format: cell-based; settings: for IKZF3 substrate protein remaining %: compounds at 50 nM and 500 nM, 24 hours
T4 construct: effects of the compounds of the present disclosure on the expression of target proteins in cells; endogenous in cells; host or cells: human PBMCs (hPBMCs)

[5] = target: T5, GSPT1 (Homo sapiens, UniProt P15170+Q96SW2); assay: Western-blot assay, substrate protein degradation in hPBMCs: GSPT1; format: cell-based; settings: for GSPT1 substrate protein remaining %: compounds at 50 nM and 500 nM, 24 hours
T5 construct: effects of the compounds of the present disclosure on the expression of target proteins in cells; endogenous in cells; host or cells: human PBMCs (hPBMCs)

[6] = tested on: MM.1S; assay: Cell viability assay (CellTiter-Meiluncell Luminescent), tumor cell proliferation, MM.1S; settings: Homo sapiens, MM1.S, 96 h, read-out: inhibitory activity (IC50, nM) against tumor cells proliferation, MM.1S
[7] = target: T6, IKZF2 (Homo sapiens, UniProt Q96SW2+Q9UKS7); assay: Western-blot assay, substrate protein degradation in hPBMCs: IKZF2; format: cell-based; settings: for IKZF2 substrate protein remaining %: compounds at 50 nM and 500 nM, 24 hours
T6 construct: effects of the compounds of the present disclosure on the expression of target proteins in cells; endogenous in cells; host or cells: human PBMCs (hPBMCs)

[8] = 24 hours of compound treatment, 50 nM and 500 nM

T4 sequence (Q9UKT9 whole entry): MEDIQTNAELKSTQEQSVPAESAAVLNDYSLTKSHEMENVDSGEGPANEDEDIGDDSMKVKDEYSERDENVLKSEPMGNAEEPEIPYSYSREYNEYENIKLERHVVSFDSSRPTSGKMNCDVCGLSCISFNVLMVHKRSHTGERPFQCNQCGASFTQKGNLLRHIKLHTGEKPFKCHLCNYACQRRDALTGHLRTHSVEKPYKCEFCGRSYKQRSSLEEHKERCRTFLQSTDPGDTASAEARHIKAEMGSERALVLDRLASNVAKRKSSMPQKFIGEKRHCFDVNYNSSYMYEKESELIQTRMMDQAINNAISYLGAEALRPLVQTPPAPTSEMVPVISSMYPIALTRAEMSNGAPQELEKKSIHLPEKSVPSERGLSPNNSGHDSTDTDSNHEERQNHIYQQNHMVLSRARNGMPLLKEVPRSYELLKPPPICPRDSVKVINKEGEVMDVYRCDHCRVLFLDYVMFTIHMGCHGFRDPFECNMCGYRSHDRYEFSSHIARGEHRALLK
T4 sequence (Q96SW2 whole entry): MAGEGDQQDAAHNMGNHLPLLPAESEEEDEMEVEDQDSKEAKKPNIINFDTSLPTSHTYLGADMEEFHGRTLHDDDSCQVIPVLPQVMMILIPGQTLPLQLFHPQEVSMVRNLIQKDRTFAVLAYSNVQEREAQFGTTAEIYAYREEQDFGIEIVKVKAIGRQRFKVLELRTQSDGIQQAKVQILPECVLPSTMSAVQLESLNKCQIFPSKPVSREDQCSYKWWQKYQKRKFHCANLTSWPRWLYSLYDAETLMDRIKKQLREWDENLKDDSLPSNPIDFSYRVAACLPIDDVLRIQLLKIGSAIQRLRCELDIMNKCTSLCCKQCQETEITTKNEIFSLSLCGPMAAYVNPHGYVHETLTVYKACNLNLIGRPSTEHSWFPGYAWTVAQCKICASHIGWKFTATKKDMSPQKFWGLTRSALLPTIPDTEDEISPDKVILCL
T4 sequence (Q16531 whole entry partner): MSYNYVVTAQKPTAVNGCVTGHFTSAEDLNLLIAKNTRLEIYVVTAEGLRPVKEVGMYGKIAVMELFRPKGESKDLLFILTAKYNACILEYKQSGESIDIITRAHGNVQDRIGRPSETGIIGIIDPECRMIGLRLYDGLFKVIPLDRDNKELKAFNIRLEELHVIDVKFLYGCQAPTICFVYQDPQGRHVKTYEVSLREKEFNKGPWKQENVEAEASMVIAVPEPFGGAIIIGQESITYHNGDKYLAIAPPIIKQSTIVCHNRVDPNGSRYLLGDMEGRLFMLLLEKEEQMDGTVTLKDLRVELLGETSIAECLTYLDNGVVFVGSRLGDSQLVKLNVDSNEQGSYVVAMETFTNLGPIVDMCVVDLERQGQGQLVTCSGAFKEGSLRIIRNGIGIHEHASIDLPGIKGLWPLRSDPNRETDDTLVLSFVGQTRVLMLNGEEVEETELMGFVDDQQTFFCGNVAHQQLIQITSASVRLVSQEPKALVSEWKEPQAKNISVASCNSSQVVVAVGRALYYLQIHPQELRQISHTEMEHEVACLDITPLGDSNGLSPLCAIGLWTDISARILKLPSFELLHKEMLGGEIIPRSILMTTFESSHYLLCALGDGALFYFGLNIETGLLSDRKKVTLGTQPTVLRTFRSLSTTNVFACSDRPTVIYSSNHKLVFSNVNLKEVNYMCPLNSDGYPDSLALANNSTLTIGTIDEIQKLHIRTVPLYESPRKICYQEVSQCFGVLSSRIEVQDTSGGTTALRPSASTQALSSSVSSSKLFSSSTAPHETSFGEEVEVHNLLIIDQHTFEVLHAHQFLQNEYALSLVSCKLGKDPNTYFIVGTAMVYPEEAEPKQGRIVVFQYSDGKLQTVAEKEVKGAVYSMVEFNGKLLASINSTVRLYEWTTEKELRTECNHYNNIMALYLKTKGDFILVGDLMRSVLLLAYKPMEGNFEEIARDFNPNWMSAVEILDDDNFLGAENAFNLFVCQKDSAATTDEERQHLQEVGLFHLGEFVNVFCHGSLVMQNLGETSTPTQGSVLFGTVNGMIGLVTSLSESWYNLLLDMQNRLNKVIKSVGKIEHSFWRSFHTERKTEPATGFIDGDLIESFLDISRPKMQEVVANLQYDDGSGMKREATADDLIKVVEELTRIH
T6 sequence (Q9UKS7 whole entry): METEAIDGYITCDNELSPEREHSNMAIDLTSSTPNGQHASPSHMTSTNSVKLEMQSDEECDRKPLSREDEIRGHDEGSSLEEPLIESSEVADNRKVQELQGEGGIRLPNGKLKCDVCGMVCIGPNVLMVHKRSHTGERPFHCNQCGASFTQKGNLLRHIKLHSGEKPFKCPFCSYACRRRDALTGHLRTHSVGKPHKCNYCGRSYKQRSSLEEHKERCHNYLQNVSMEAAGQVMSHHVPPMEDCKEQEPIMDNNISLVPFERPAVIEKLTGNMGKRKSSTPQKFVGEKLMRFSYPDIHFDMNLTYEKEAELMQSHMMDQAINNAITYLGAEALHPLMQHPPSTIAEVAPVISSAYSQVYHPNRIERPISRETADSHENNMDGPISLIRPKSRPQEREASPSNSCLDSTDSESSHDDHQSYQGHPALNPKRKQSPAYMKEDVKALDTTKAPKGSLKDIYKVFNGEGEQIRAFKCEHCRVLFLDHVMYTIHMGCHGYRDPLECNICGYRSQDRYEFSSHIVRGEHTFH
T6 sequence (Q96SW2 whole entry): as the sequence (Q96SW2 whole entry) above
T6 sequence (Q16531 whole entry partner): as the sequence (Q16531 whole entry partner) above
T3 sequence (Q13422 whole entry): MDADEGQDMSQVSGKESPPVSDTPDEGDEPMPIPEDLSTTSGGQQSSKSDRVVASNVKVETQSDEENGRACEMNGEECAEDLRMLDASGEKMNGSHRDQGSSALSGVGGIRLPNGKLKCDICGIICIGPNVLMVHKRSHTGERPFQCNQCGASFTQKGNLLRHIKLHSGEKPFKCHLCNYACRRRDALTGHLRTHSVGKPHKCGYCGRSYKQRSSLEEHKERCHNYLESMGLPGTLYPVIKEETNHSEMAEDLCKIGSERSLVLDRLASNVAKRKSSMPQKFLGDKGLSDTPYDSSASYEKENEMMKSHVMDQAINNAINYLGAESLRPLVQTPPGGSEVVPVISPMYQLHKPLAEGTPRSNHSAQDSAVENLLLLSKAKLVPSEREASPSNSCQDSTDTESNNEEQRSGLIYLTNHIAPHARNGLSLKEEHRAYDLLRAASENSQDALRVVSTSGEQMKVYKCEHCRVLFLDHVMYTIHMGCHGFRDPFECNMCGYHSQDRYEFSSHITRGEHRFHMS
T3 sequence (Q96SW2 whole entry): as the sequence (Q96SW2 whole entry) above
T3 sequence (Q16531 whole entry partner): as the sequence (Q16531 whole entry partner) above
T1 sequence (P30291 whole entry): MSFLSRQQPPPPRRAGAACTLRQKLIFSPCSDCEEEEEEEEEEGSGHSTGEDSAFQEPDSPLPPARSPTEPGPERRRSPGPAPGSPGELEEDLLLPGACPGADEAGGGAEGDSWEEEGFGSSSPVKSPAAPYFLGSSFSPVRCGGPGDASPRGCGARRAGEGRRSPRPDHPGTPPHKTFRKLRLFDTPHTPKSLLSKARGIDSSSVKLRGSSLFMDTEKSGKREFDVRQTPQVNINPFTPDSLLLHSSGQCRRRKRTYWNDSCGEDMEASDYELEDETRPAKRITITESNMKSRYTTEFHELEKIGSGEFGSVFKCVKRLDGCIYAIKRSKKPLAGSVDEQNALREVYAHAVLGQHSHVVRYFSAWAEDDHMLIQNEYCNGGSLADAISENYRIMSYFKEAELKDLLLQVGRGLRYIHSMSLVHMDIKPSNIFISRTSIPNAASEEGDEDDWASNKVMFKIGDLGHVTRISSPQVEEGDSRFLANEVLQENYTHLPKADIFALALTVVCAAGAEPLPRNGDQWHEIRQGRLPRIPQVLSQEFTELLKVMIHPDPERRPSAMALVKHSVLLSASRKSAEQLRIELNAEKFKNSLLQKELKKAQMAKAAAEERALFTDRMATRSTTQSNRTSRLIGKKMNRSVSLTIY
T1 sequence (Q96SW2 whole entry): as the sequence (Q96SW2 whole entry) above
T1 sequence (Q16531 whole entry partner): as the sequence (Q16531 whole entry partner) above
T5 sequence (P15170 whole entry): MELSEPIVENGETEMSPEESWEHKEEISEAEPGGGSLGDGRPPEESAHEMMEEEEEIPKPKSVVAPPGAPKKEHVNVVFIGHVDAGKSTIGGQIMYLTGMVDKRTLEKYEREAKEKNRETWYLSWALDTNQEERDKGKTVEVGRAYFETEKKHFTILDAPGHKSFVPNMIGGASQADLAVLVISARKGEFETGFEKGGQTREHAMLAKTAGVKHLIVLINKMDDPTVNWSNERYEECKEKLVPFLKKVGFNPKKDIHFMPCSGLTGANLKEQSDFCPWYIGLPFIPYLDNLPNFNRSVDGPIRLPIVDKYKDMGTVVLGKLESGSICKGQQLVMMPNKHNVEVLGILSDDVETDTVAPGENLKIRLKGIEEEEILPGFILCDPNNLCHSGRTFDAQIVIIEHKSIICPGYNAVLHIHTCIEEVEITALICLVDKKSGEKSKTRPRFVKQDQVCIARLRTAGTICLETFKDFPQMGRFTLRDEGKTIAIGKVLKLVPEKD
T5 sequence (Q96SW2 whole entry): as the sequence (Q96SW2 whole entry) above
T5 sequence (Q16531 whole entry partner): as the sequence (Q16531 whole entry partner) above

SMILES | IC50 [6] [nM] | WEE1 substrate protein remaining % [1] | CK1α substrate protein remaining % [2] | IKZF1 substrate protein remaining % [3] | IKZF3 substrate protein remaining % [4] | GSPT1 substrate protein remaining % [5] | IKZF2 substrate protein remaining % [7] | substrate protein remaining % WEE1 [1, 8] | substrate protein remaining % CK1α [2, 8] | substrate protein remaining % IKZF1 [3, 8] | substrate protein remaining % IKZF3 [4, 8] | substrate protein remaining % GSPT1 [5, 8] | substrate protein remaining % IKZF2 [7, 8]
Cc1ccc(Sc2ccccc2N2CCN(Cc3ccc4c(c3)CN(N3CCC(=O)NC3=O)C4=O)CC2)c(C)c1 [GT-04867, 1-(5-((4-(2-((2,4-dimethylphenyl)thio)phenyl)piperazin-1-yl)methyl)-1-oxoisoindolin-2-yl)dihydropyrimidine-2,4(1H,3H)-dione] | 500 to 1000 | B ("B" is defined as 80%< substrate protein remaining %≤ 100%) | B ("B" is defined as 80%< substrate protein remaining %≤ 100%) | A ("A" is defined as 0% ≤ substrate protein remaining % ≤ 80%) | B ("B" is defined as 80%< substrate protein remaining %≤ 100%) | A ("A" is defined as 0% ≤ substrate protein remaining % ≤ 80%) | B ("B" is defined as 80%< substrate protein remaining %≤ 100%) |  |  |  |  |  | 
O=C1CCN(N2Cc3cc(CN4CCC(N5CCc6cc(F)ccc65)CC4)ccc3C2=O)C(=O)N1 [GT-05165, 1-(5-((4-(5-fluoroindolin-1-yl)piperidin-1-yl)methyl)-1-oxoisoindolin-2-yl)dihydropyrimidine-2,4(1H,3H)-dione] | 500 to 1000 | B ("B" is defined as 80%< substrate protein remaining %≤ 100%) | B ("B" is defined as 80%< substrate protein remaining %≤ 100%) | B ("B" is defined as 80%< substrate protein remaining %≤ 100%) | B ("B" is defined as 80%< substrate protein remaining %≤ 100%) | A ("A" is defined as 0% ≤ substrate protein remaining % ≤ 80%) | A ("A" is defined as 0% ≤ substrate protein remaining % ≤ 80%) |  |  |  |  |  | 
O=C1CCN(N2Cc3cc(CN4CCC(c5c[nH]c6cc(F)ccc56)CC4)ccc3C2=O)C(=O)N1 [GT-05164, 1-(5-((4-(6-fluoro-1H-indol-3-yl)piperidin-1-yl)methyl)-1-oxoisoindolin-2-yl)dihydropyrimidine-2,4(1H,3H)-dione] | 100 to 300 | B ("B" is defined as 80%< substrate protein remaining %≤ 100%) | B ("B" is defined as 80%< substrate protein remaining %≤ 100%) | A ("A" is defined as 0% ≤ substrate protein remaining % ≤ 80%) | B ("B" is defined as 80%< substrate protein remaining %≤ 100%) | A ("A" is defined as 0% ≤ substrate protein remaining % ≤ 80%) | A ("A" is defined as 0% ≤ substrate protein remaining % ≤ 80%) |  |  |  |  |  | 
O=C1CCN(N2Cc3cc(CN4CC=C(c5ccoc5)CC4)ccc3C2=O)C(=O)N1 [GT-04875, 1-(5-((4-(furan-3-yl)-3,6-dihydropyridin-1(2H)-yl)methyl)-1-oxoisoindolin-2-yl)dihydropyrimidine-2,4(1H,3H)-dione] | 300 to 500 | A ("A" is defined as 0% ≤ substrate protein remaining % ≤ 80%) | B ("B" is defined as 80%< substrate protein remaining %≤ 100%) | B ("B" is defined as 80%< substrate protein remaining %≤ 100%) | B ("B" is defined as 80%< substrate protein remaining %≤ 100%) | A ("A" is defined as 0% ≤ substrate protein remaining % ≤ 80%) | B ("B" is defined as 80%< substrate protein remaining %≤ 100%) |  |  |  |  |  | 
CC1(C)CCC(CN2CCN(Cc3ccc4c(c3)CN(N3CCC(=O)NC3=O)C4=O)CC2)=C(c2ccc(Cl)cc2)C1 [GT-04944, 1-(5-((4-((4'-chloro-5,5-dimethyl-3,4,5,6-tetrahydro-[1,1'-biphenyl]-2-yl)methyl)piperazin-1-yl)methyl)-1-oxoisoindolin-2-yl)dihydropyrimidine-2,4(1H,3H)-dione] | 500 to 1000 | B ("B" is defined as 80%< substrate protein remaining %≤ 100%) | B ("B" is defined as 80%< substrate protein remaining %≤ 100%) | B ("B" is defined as 80%< substrate protein remaining %≤ 100%) | B ("B" is defined as 80%< substrate protein remaining %≤ 100%) | A ("A" is defined as 0% ≤ substrate protein remaining % ≤ 80%) | B ("B" is defined as 80%< substrate protein remaining %≤ 100%) |  |  |  |  |  | 
O=C1CCN(N2Cc3cc(CN4CC=C(c5cncc(Cl)c5Cl)CC4)ccc3C2=O)C(=O)N1 [GT-06393, 1-(5-((4,5-dichloro-3',6'-dihydro-[3,4'-bipyridin]-1'(2'H)-yl)methyl)-1-oxoisoindolin-2-yl)dihydropyrimidine-2,4(1H,3H)-dione] | 500 to 1000 | A ("A" is defined as 0% ≤ substrate protein remaining % ≤ 80%) | A ("A" is defined as 0% ≤ substrate protein remaining % ≤ 80%) | B ("B" is defined as 80%< substrate protein remaining %≤ 100%) | A ("A" is defined as 0% ≤ substrate protein remaining % ≤ 80%) | A ("A" is defined as 0% ≤ substrate protein remaining % ≤ 80%) | A ("A" is defined as 0% ≤ substrate protein remaining % ≤ 80%) |  |  |  |  |  | 

The next lines start with results.

IC50 [6] [nM] | SMILES | WEE1 substrate protein remaining % [1] | CK1α substrate protein remaining % [2] | IKZF1 substrate protein remaining % [3] | IKZF3 substrate protein remaining % [4] | GSPT1 substrate protein remaining % [5] | IKZF2 substrate protein remaining % [7] | substrate protein remaining % WEE1 [1, 8] | substrate protein remaining % CK1α [2, 8] | substrate protein remaining % IKZF1 [3, 8] | substrate protein remaining % IKZF3 [4, 8] | substrate protein remaining % GSPT1 [5, 8] | substrate protein remaining % IKZF2 [7, 8]
500 to 1000 | Cc1ccc(C2CCN(Cc3ccc4c(c3)CN(N3CCC(=O)NC3=O)C4=O)CC2)s1 [GT-07425, 1-(5-((4-(5-methylthiophen-2-yl)piperidin-1-yl)methyl)-1-oxoisoindolin-2-yl)dihydropyrimidine-2,4(1H,3H)-dione] |  |  |  |  |  |  | B (80%< substrate protein remaining %≤ 100%) | B (80%< substrate protein remaining %≤ 100%) | B (80%< substrate protein remaining %≤ 100%) | B (80%< substrate protein remaining %≤ 100%) | A (0% ≤ substrate protein remaining % ≤ 80%) | B (80%< substrate protein remaining %≤ 100%)
500 to 1000 | O=C1CCN(N2Cc3cc(CN4CCN(C(c5ccc(F)cc5)c5ccc(F)cc5)CC4)ccc3C2=O)C(=O)N1 [GT-04894, 1-(5-((4-(bis(4-fluorophenyl)methyl)piperazin-1-yl)methyl)-1-oxoisoindolin-2-yl)dihydropyrimidine-2,4(1H,3H)-dione] | A ("A" is defined as 0% ≤ substrate protein remaining % ≤ 80%) | B ("B" is defined as 80%< substrate protein remaining %≤ 100%) | A ("A" is defined as 0% ≤ substrate protein remaining % ≤ 80%) | B ("B" is defined as 80%< substrate protein remaining %≤ 100%) | A ("A" is defined as 0% ≤ substrate protein remaining % ≤ 80%) | A ("A" is defined as 0% ≤ substrate protein remaining % ≤ 80%) |  |  |  |  |  | 
100 to 300 | O=C1CCN(N2Cc3cc(CN4CC(=C5CCOc6cc(F)ccc65)C4)ccc3C2=O)C(=O)N1 [GT-05168, 1-(5-((3-(7-fluorochroman-4-ylidene)azetidin-1-yl)methyl)-1-oxoisoindolin-2-yl)dihydropyrimidine-2,4(1H,3H)-dione] | B ("B" is defined as 80%< substrate protein remaining %≤ 100%) | B ("B" is defined as 80%< substrate protein remaining %≤ 100%) | B ("B" is defined as 80%< substrate protein remaining %≤ 100%) | A ("A" is defined as 0% ≤ substrate protein remaining % ≤ 80%) | A ("A" is defined as 0% ≤ substrate protein remaining % ≤ 80%) | B ("B" is defined as 80%< substrate protein remaining %≤ 100%) |  |  |  |  |  | 
10 to 50 | Cn1cc(C2=CCN(Cc3ccc4c(c3)CN(N3CCC(=O)NC3=O)C4=O)CC2)c2ccc(F)cc21 [GT-05167, 1-(5-((4-(6-fluoro-1-methyl-1H-indol-3-yl)-3,6-dihydropyridin-1(2H)-yl)methyl)-1-oxoisoindolin-2-yl)dihydropyrimidine-2,4(1H,3H)-dione] | A ("A" is defined as 0% ≤ substrate protein remaining % ≤ 80%) | B ("B" is defined as 80%< substrate protein remaining %≤ 100%) | A ("A" is defined as 0% ≤ substrate protein remaining % ≤ 80%) | A ("A" is defined as 0% ≤ substrate protein remaining % ≤ 80%) | A ("A" is defined as 0% ≤ substrate protein remaining % ≤ 80%) | A ("A" is defined as 0% ≤ substrate protein remaining % ≤ 80%) |  |  |  |  |  | 
100 to 300 | O=C1CCN(N2Cc3cc(CN4CC(N5CCc6cc(F)ccc65)C4)ccc3C2=O)C(=O)N1 [GT-05169, 1-(5-((3-(5-fluoroindolin-1-yl)azetidin-1-yl)methyl)-1-oxoisoindolin-2-yl)dihydropyrimidine-2,4(1H,3H)-dione] | B ("B" is defined as 80%< substrate protein remaining %≤ 100%) | B ("B" is defined as 80%< substrate protein remaining %≤ 100%) | B ("B" is defined as 80%< substrate protein remaining %≤ 100%) | A ("A" is defined as 0% ≤ substrate protein remaining % ≤ 80%) | A ("A" is defined as 0% ≤ substrate protein remaining % ≤ 80%) | A ("A" is defined as 0% ≤ substrate protein remaining % ≤ 80%) |  |  |  |  |  | 

Reference: EP4722207A1, “OXOISOINDOLINYL-SUBSTITUTED TETRAHYDROPYRIMIDINEDIONE DERIVATIVE AND USE THEREOF” (Gluetacs Therapeutics (Shanghai) Co., Ltd., priority 2023, dated 2024)
